Laboratory results published in patent US20240368121A1, “ESTROGEN RECEPTOR DEGRADERS, PHARMACEUTICAL COMPOSITIONS THEREOF, AND THEIR THERAPEUTIC APPLICATIONS” (BioTheryX, Inc., priority 2021, published 2024).
pIC50: −log10 of the molar value.

Columns and labels:
ERα = target: T1, ERα (Homo sapiens, UniProt P03372); experiment: Protein degradation assay: ERα in MCF-7 cells via western blot; assay type: cell-based; settings: 6 h; for ERα Protein Degradation 1 nM: 1 nM compound; for ERα Protein Degradation 10 nM: 10 nM compound; for ERα Protein Degradation 100 nM: 100 nM compound
T1 construct: degrading an ERα in MCF-7 cells via a western blot; endogenous in cells; host or cells: MCF-7
T1 sequence (P03372 1-595): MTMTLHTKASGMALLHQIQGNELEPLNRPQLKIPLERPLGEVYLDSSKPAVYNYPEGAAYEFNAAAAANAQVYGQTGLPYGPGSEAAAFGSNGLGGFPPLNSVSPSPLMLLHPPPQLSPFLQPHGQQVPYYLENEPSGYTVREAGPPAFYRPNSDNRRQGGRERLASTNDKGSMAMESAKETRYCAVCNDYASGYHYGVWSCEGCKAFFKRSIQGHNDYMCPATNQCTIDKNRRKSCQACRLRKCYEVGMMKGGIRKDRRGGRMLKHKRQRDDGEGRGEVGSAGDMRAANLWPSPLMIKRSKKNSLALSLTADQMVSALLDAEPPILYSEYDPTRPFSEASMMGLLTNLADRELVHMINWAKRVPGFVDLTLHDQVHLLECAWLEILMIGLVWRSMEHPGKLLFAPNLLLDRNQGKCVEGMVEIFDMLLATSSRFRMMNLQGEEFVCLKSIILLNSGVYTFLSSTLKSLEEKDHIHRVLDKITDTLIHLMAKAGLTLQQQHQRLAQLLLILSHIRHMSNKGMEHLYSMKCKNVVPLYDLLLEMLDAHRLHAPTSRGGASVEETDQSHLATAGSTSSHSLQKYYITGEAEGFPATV
Method: A compound provided herein was assessed for its activity in degrading an ERα in MCF-7 cells via a western blot. The MCF7 cells were cultured at 37° C. in a humidified 5% C02 environment in MEM supplemented with 10% FBS with insulin. The cells were seeded in 12-well plates at a density of 300,000 cells per well in maintenance media. Cells were treated with the compound at predetermined concentrations (e.g., 1 nM, 10 nM, 100 nM, and 1 μM) for 6 h. The cells were then washed in PBS and the whole cells were lysed in a cell lysis buffer and incubated for 15 minutes on ice. Cell debris was removed by high-speed centrifugation and the cleared whole cell lysates were prepared for further analysis by a western blot. The whole cell protein extracts were separated on SDS-polyacrylamide gels, transferred to nitrocellulose membranes, and probed with primary antibodies, including anti-ERα antibody and GAPDH antibody for loading control. The membranes were subsequently washed and probed with secondary antibodies for chemiluminescence, followed by imaging on a BIORAD CHEMIDOC Imaging System. The results are summarized in Table 2, where “A” represents a percentage degradation value of no less than 50%; “B” represents a percentage degradation value of less than 50% and no less than 25%; “C” represents a percentage degradation value of less than 25% and no less than 10%; and “D” represents a percentage degradation value of less than 10%.

MCF7 cells = experiment: Cell viability assay ([…]-GLO, 6-day treatment); assay type: cell-based; settings: Homo sapiens, MCF7, 144 h; MCF-7 cells, 6 days, CTG; read-out: Inhibition of Cancerous Cells IC50 MCF-7
Method: A compound provided herein was evaluated for its anticancer activity in MCF7 and T47D cells. MCF7 and T47D cells were cultured at 37° C. in a humidified 5% C02 environment in MEM or RPMI, supplemented with 10% FBS with insulin, respectively. The cells were plated in 384-well microplates at a density of 1,000 cells per well in their respective maintenance media. The cells were treated with the compound by a 10-point dose response curve for 6 days, during which, the medium and compound were refreshed once. After the 6-day treatment, the cell viability was assessed using […]-GLO (CTG) reagent. Luminescence was measured with a microplate reader.

| SMILES | ERα Protein Degradation 1 nM (ERα) | ERα Protein Degradation 10 nM (ERα) | ERα Protein Degradation 100 nM (ERα) | pIC50 (MCF7 cells) |
| --- | --- | --- | --- | --- |
| O=C1CCC(N2Cc3c(csc3COc3ccc(CNCCCCCOc4ccc([C@@H]5c6ccc(O)cc6CC[C@@H]5c5ccccc5)cc4)cc3)C2=O)C(=O)N1 (stereo in doubt) [Compound A17, 3-(1-((4-(((5-(4-((1R,2S)-6-Hydroxy-2-phenyl-1,2,3,4-tetrahydronaphthalen-1-yl)phenoxy)pentyl)amino)methyl)phenoxy)methyl)-4-oxo-4H-thieno[3,4-c]pyrrol-5(6H)-yl)piperidine-2,6-dione] | B (a percentage degradation value of less than 50% and no less than 25%) | C (a percentage degradation value of less than 25% and no less than 10%) | D (a percentage degradation value of less than 10%) | 5.94 |
| O=C1CCC(N2Cc3c(csc3COc3ccc(CNCCCCCOc4ccc([C@@H]5c6ccc(O)cc6CC[C@@H]5c5ccccc5)cc4)cc3)C2=O)C(=O)N1 (stereo partly drawn) [Compound A9, 3-(1-((4-(((5-(4-((1R,2S)-6-hydroxy-2-phenyl-1,2,3,4-tetrahydronaphthalen-1-yl)phenoxy)pentyl)amino)methyl)phenoxy)methyl)-4-oxo-4H-thieno[3,4-c]pyrrol-5(6H)-yl)piperidine-2,6-dione] | B (a percentage degradation value of less than 50% and no less than 25%) | B (a percentage degradation value of less than 50% and no less than 25%) | B (a percentage degradation value of less than 50% and no less than 25%) | 8.85 |
| O=C1CCC(N2Cc3c(cc(F)cc3C3CCN(CCCCOc4ccc([C@H]5c6ccc(O)cc6CC[C@H]5c5ccccc5)cc4)CC3)C2=O)C(=O)N1 (stereo partly drawn) [Compound A12, 3-(6-Fluoro-4-(1-(4-(4-((1S,2R)-6-hydroxy-2-phenyl-1,2,3,4-tetrahydro-naphthalen-1-yl)phenoxy)butyl)piperidin-4-yl)-1-oxoisoindolin-2-yl)piperidine-2,6-dione] | C (a percentage degradation value of less than 25% and no less than 10%) | C (a percentage degradation value of less than 25% and no less than 10%) | C (a percentage degradation value of less than 25% and no less than 10%) |  |
| O=C1CCC(N2Cc3cc(C4CCN(CCCCOc5ccc([C@H]6c7ccc(O)cc7CC[C@H]6c6ccccc6)cc5)CC4)c(F)cc3C2=O)C(=O)N1 (stereo partly drawn) [Compound A13, 3-(6-Fluoro-5-(1-(4-(4-((1S,2R)-6-hydroxy-2-phenyl-1,2,3,4-tetrahydro-naphthalen-1-yl)phenoxy)butyl)piperidin-4-yl)-1-oxoisoindolin-2-yl)piperidine-2,6-dione] | C (a percentage degradation value of less than 25% and no less than 10%) | B (a percentage degradation value of less than 50% and no less than 25%) | C (a percentage degradation value of less than 25% and no less than 10%) |  |
| O=C1CCC(N2Cc3c(csc3C3CCN(CCCCCCOc4ccc([C@@H]5c6ccc(O)cc6CC[C@@H]5c5ccccc5)cc4)CC3)C2=O)C(=O)N1 (stereo partly drawn) [Compound A18, 3-(1-(1-(6-(4-((1R,2S)-6-Hydroxy-2-phenyl-1,2,3,4-tetrahydronaphthalen-1-yl)-phenoxy)hexyl)piperidin-4-yl)-4-oxo-4H-thieno[3,4-c]pyrrol-5(6H)-yl)piperidine-2,6-dione] |  |  |  | 9.55 |
| Cn1nc([C@H]2CCC(=O)NC2=O)c2ccc(OCC(=O)N3CCN(CCCCOc4ccc([C@@H]5c6ccc(O)cc6CC[C@@H]5c5ccccc5)cc4)CC3)cc21 [Compound B26, (R)-3-(6-(2-(4-(4-(4-((1R,2S)-6-Hydroxy-2-phenyl-1,2,3,4-tetrahydronaphthalen-1-yl)phenoxy)butyl)piperazin-1-yl)-2-oxoethoxy)-1-methyl-1H-indazol-3-yl)piperidine-2,6-dione] |  |  |  | 9.89 |
| CC1(Cc2ccc(OCCCCN3CCN(C(=O)COc4cccc5c4CN(C4CCC(=O)NC4=O)C5=O)CC3)cc2)C(c2ccc(O)cc2)=Nc2ccc(O)cc21 (stereo not shown) [Compound D1, 3-(4-(2-(4-(4-(4-((5-hydroxy-2-(4-hydroxyphenyl)-3-methyl-3H-indol-3-yl)-methyl)phenoxy)butyl)piperazin-1-yl)-2-oxoethoxy)-1-oxoisoindolin-2-yl)piperidine-2,6-dione] | D (a percentage degradation value of less than 10%) | D (a percentage degradation value of less than 10%) | D (a percentage degradation value of less than 10%) |  |
| CC1(Cc2ccc(OCCCCN3CCN(c4ccc5c(c4)CN(C4CCC(=O)NC4=O)C5=O)CC3)cc2)C(c2ccc(O)cc2)=Nc2ccc(O)cc21 (stereo not shown) [Compound D2, 3-(5-(4-(4-(4-((5-Hydroxy-2-(4-hydroxyphenyl)-3-methyl-3H-indol-3-yl)-methyl)phenoxy)butyl)piperazin-1-yl)-1-oxoisoindolin-2-yl)piperidine-2,6-dione] | D (a percentage degradation value of less than 10%) | D (a percentage degradation value of less than 10%) | D (a percentage degradation value of less than 10%) |  |
| CC1(Cc2ccc(OCCCCN3CCN(C(=O)COc4ccc(N5CCC(=O)NC5=O)cc4)CC3)cc2)C(c2ccc(O)cc2)=Nc2ccc(O)cc21 (stereo not shown) [Compound D9, 1-(4-(2-(4-(4-(4-((5-Hydroxy-2-(4-hydroxyphenyl)-3-methyl-3H-indol-3-yl)-methyl)phenoxy)butyl)piperazin-1-yl)-2-oxoethoxy)phenyl)dihydropyrimidine-2,4(1H,3H)-dione] | D (a percentage degradation value of less than 10%) | D (a percentage degradation value of less than 10%) | D (a percentage degradation value of less than 10%) |  |
| Cc1c(-c2ccc(O)cc2)n(Cc2ccc(N3CCC(CN4CCN(C(=O)COc5ccc6c(C7CCC(=O)NC7=O)nn(C)c6c5)CC4)CC3)cc2)c2ccc(O)cc12 (stereo not shown) [Compound E15, 3-(6-(2-(4-((1-(4-((5-hydroxy-2-(4-hydroxyphenyl)-3-methyl-1H-indol-1-yl)-methyl)phenyl)piperidin-4-yl)methyl)piperazin-1-yl)-2-oxoethoxy)-1-methyl-1H-indazol-3-yl)-piperidine-2,6-dione] |  |  |  | 9.57 |
| Cc1c(-c2ccc(O)cc2)n(Cc2ccc(N3CCC(CN4CCN(c5ccc6c(C7CCC(=O)NC7=O)nn(C)c6c5)CC4)CC3)cc2)c2ccc(O)cc12 (stereo not shown) [Compound E17, 3-(6-(4-((1-(4-((5-Hydroxy-2-(4-hydroxyphenyl)-3-methyl-1H-indol-1-yl)-methyl)phenyl)piperidin-4-yl)methyl)piperazin-1-yl)-1-methyl-1H-indazol-3-yl)piperidine-2,6-dione] |  |  |  | 9.10 |
| Cc1c(-c2ccc(O)cc2)n(Cc2ccc(N3CCC(CCN4CCN(c5ccc6c(C7CCC(=O)NC7=O)nn(C)c6c5)CC4)CC3)cc2)c2ccc(O)cc12 (stereo not shown) [Compound E18, 3-(6-(4-(2-(1-(4-((5-Hydroxy-2-(4-hydroxyphenyl)-3-methyl-1H-indol-1-yl)-methyl)phenyl)piperidin-4-yl)ethyl)piperazin-1-yl)-1-methyl-1H-indazol-3-yl)piperidine-2,6-dione] |  |  |  | 9.44 |
